Source: patent publication US20250002954A1, “Novel Compound, Use Thereof, and Method for Producing Same, and Compound-Containing Composition, Method for Producing 4-Trehalosamine, and Microorganism” (Microbial Chemistry Research Foundation, priority 2021, published 2025)

Assays:
[1] = Measurement of critical micelle concentration (CMC) with CMC assay kit; type: physicochemical
Description: (§1) For the IMCTA-C8, IMCTA-C9, IMCTA-C10, IMCTA-C11, IMCTA-C12, IMCTA-C13, IMCTA-C14, and IMCTA-C15 (IMCTA-Cn) that were obtained in synthesis examples 1 to 8 and for n-dodecyl-β-D-maltoside (DDM) as control, “critical micelle concentration (CMC)”, “micelle size”, and “Hydrophilic-Lipophilic Balance (HLB) value” were measured or calculated in the following manner.
CMC was measured with a Detergent Critical Micelle Concentration (CMC) Assay Kit (CMC1000, manufactured by ProFoldin) according to the product protocol.

[2] = Measurement of micelle size by dynamic light scattering; type: physicochemical
Description: as §1
Micelle sizes were measured by dynamic light scattering with Zetasizer Nano S (manufactured by Malvern Panalytical).

[3] = system: human ovarian cancer cells OVK18 and human malignant melanoma cells Mewo; test: Autophagy inducing effect on cultured cells (western blotting of autophagy-related proteins); type: cell-based
Description: Expression and phosphorylation patterns of autophagy-related proteins when human ovarian cancer cells or human malignant melanoma cells were treated with 4-trehalosamine and trehalose analog for 24 hours were determined by western blotting.
Human ovarian cancer cells OVK18 (obtained from RIKEN BRC) and human malignant melanoma cells Mewo (JCRB0066) were each inoculated on a 12-well microplate at 8×10^4 cells/mL/well and cultured in DMEM culture medium at 37° C. for 72 hours, after which they were treated with test samples.
The test samples used were the 4-trehalosamine (4TA) obtained in the <Purification process> of production example 10, trehalose (TRH), the IMCTA-Cn compounds obtained in synthesis examples 1 to 8, trehalose ester (TRH-Cn) (manufactured by Dojindo Laboratories), n-dodecyl-β-D-maltoside (DDM), maltose (MLT), sucrose (SCR), and rapamycin (RM). Untreated cells without addition of compounds were used as control.
In treatment with the test samples, in order to avoid contact of a compound with locally high concentration with cells, a half of the culture fluid in each well was taken, and a required amount of test sample was dissolved in it. After dissolving it sufficiently, it was returned to the original well and treated at 37° C. for 24 hours.
Subsequently, culture medium containing the test samples was removed, washed once with PBS, and dissolved with 2×SDS sample buffer not containing 2-mercaptoethanol (2-ME) or bromphenol blue (BPB). After measuring the protein concentration in the dissolved sample with a BCA protein assay kit (manufactured by Thermo Fisher Scientific), 2-ME and BPB were added and the sample was boiled for 5 minutes, which was used as a sample for western blotting.
The western blotting was performed in a similar manner to test example 4 except that anti-LC3 antibody, which is a marker for autophagy, anti-p62, anti-cathepsin D antibody, anti-Phospho-Akt (Ser473) antibody, anti-Akt antibody, anti-Phospho-p70 S6K (T389) antibody, and anti-p70 S6K antibody (all manufactured by Cell Signaling Technology) were used at 1/2,000 dilution as the primary antibodies in the method described in test example 4.
The results for human ovarian cancer cells OVK18 are shown in FIGS. 20A to 20C, and the results for human malignant melanoma cells Mewo are shown in FIGS. 20D to 20F. In FIGS. 20A, 20B, 20D, and 20E, “PCD” denotes precursors of cathepsin D and “CD-HC” denotes cathepsin D heavy chain.

[4] = system: human ovarian cancer cells OVK18 and human malignant melanoma cells Mewo; test: LC3-II expression in combination with autophagy inhibitor (bafilomycin or chloroquine); type: cell-based; conditions: 50 mM 4-trehalosamine, 50 μM IMCTA-C14 or 100 mM trehalose 14 hours, then 200 nM BM or 100 μM CQ 4 hours
Description: As with the test example 10-1, human ovarian cancer cells OVK18 (obtained from RIKEN BRC) and human malignant melanoma cells Mewo (JCRB0066) were each inoculated on a 12-well microplate at 8×10^4 cells/mL/well, and cultured in DMEM culture medium at 37° C. for 72 hours. After that, a half of the culture fluid in each well was taken and each compound was dissolved so that the final concentration is 50 mM 4-trehalosamine, 50 μM IMCTA-C14, or 100 mM trehalose. After dissolving it sufficiently, the cells were returned to the original well and treated at 37° C. for 14 hours. Untreated cells without addition of the compounds were used as control.
After that, each autophagy inhibitor was added so that the final concentration is 200 nM bafilomycin (BM) or 100 μM chloroquine (CQ), and the cells were cultured at 37° C. for 4 hours. A group with no inhibitor added was cultured in a similar way. After culture, they were turned into samples for western blotting in a similar manner to test example 10-1.
The western blotting was performed in a similar manner to test example 4 except that anti-LC3 antibody (manufactured by Cell Signaling Technology) was used at 1/2,000 dilution as the primary antibody in the method described in test example 4. The results for human ovarian cancer cells OVK18 are shown in FIG. 21A, and the results for human malignant melanoma cells Mewo are shown in FIG. 21B.
Also, the results (graphs) of image analysis on the results of western blotting via Image J (manufactured by National Institutes of Health) are shown in FIGS. 21A and 21B (n=10, mean±S.D.). The vertical axis of the graph indicates the value of the amount of expression (expression amount ratio) of LC3-II for the groups with the different compounds added when the amount of expression of LC3-II in the control (untreated cells) is 1. […]

[5] = system: aggregated proteins Q74 and SynA53T in SH-SY5Y cells and NH-12 cells; test: Elimination effect on aggregated protein in cells (Q74, SynA53T); type: cell-based, human; conditions: 100 mM 4-trehalosamine, 70 μM IMCTA-C14 or 100 mM trehalose, 14 hours; SH-SY5Y and NH-12 cells
Description: The effect of 4-trehalosamine or trehalose analog on Q74, which is partial peptide of huntingtin (Htt), the causal protein of Huntington's disease, and SynA53T, which is a mutation of α-synuclein, the causal protein of Parkinson's disease, (both aggregated proteins) was determined in the following manner.
Neuroblastoma cells SH-SY5Y (obtained from European Collection of Authenticated Cell Cultures (ECACC)) and human neuroblastoma cells NH-12 (obtained from RIKEN BRC) were each inoculated at 14×10^4 cells/mL and cultured in DMEM culture medium at 37° C. for 48 hours.
After the culture of SH-SY5Y cells and NH-12 cells, pEGFP-Q74 vector or EGFP-alphasynuclein-A53T (both obtained from addgene), which are expression vectors of aggregated protein, were transfected with transfection reagent (Viafect, manufactured by Promega). After 24 hours from the transfection, 100 mM 4-trehalosamine, 70 μM IMCTA-C14, or 100 mM trehalose was added and the cells were further treated for 14 hours. Untreated cells without addition of the compounds were used as control. After washing the cells three times with PBS, hyposmotic fluid (solution of one tablet of cOmplete, Mini, EDTA-free Protease Inhibitor Cocktail (CM, manufactured by Merck) in 50 mL of pure water) was added and the mixture was shaken on ice for 10 minutes. It was then centrifuged at 21,300×g for 10 minutes to be separated into soluble protein (Sol) and aggregated protein (Agg) […]. Thereafter, they were turned into samples for western blotting in a similar manner to test example 10-1.
The western blotting was performed in a similar manner to test example 4 except that anti-GFP antibody (manufactured by Proteintech) was used at 1/5,000 dilution and anti-LC3 antibody (manufactured by Cell Signaling Technology) was used at 1/2,000 dilution as the primary antibodies in the method described in test example 4. The results for neuroblastoma cells SH-SY5Y are shown in FIGS. 22A and 22B, and the results for human neuroblastoma cells NH-12 are shown in FIGS. 22C and 22D. […]

[6] = system: Mycobacterium smegmatis mc^2 (ATCC 700084); test: Staining of mycobacterium with IMCTA-fluorescein, IMCTA-biotin or IMCTA-azide; type: cell-based
[7] = system: Mycobacterium smegmatis bacterial cells; test: TLC analysis of lipid components of IMCTA-fluorescein stained cells; type: cell-based; conditions: bacterial cells which had ingested IMCTA-fluorescein
Description: TLC analysis was performed on the lipid components of bacterial cell suspension of Mycobacterium smegmatis bacterial cells stained with IMCTA-fluorescein in test example 11-1 or bacterial cell suspension of Mycobacterium smegmatis bacterial cells treated with DMSO.
The TLC analysis was performed based on the method of Kai et al. (M. Kai et al., FEBS Lett 2007, 581, p. 3345-3350).
The bacterial cell suspension of Mycobacterium smegmatis bacterial cells stained with IMCTA-fluorescein in test example 11-1 or the bacterial cell suspension of Mycobacterium smegmatis bacterial cells treated with DMSO was centrifuged at 21,300×g for 1 minute. […]
In the TLC analysis, a Silica gel 60 TLC plate (manufactured by Merck) was used and the solvent was developed with chloroform/methanol/acetone/acetonitrile (90:10:6:1, v/v). The lipid as a whole was detected with phosphomolybdic acid solution similar to that in test example 1 and fluorescence was detected with a UV trans-illuminator (NTFM-20, manufactured by Analytik Jena US LLC).
The phosphomolybdic acid staining patterns for the entire component are shown in FIG. 26A and the fluorescence detection patterns are shown in FIG. 26B. […] In FIG. 26B, the arrows indicate components for which fluorescence is seen only in the IMCTA-fluorescein treated sample.

| Compound | CMC [1] [mM] | Micelle size [2] [nm] | accumulation of PCD (precursors of cathepsin D) ([3]; 24 hours) | concentration giving same or higher LC3-II expression, relative to trehalose ([3]; 24 hours) | p62 ([3]; 24 hours) | pAkt ([3]; 24 hours) | phosphorylation of p70 S6K ([3]; 24 hours) | expression of LC3-II (autophagy marker) ([3]; 24 hours treatment, western blotting) | expression of LC3-II in combination with bafilomycin (BM) or chloroquine (CQ) [4] | aggregate of Q74 and aggregate of SynA53T [5] | ingestion into bacterial cells and fluorescence (staining) ([6]; 10 μg/mL IMCTA-fluorescein, 30 μg/mL IMCTA-biotin, 10 μg/mL IMCTA-azide, 37° C., 8 hours) | ingestion in the presence of sucrose (blocking) ([6]; sucrose 1% or 3%) | ingestion in the presence of trehalose (blocking) ([6]; trehalose 1% or 3%) | fluorescent lipids detected by TLC [7] |
| --- | --- | --- | --- | --- | --- | --- | --- | --- | --- | --- | --- | --- | --- | --- |
| CCCCCCCCCCCCCCN[C@@H]1C(CO)O[C@H](O[C@H]2OC(CO)[C@@H](O)C(O)C2O)C(O)C1O (some centres unmarked) [IMCTA-C14] | 0.11 | 16.5 ± 4.4 | no accumulation of PCD was observed | several thousand times lower than trehalose | accumulation trend of p62 | decreasing trend of pAkt | p70 S6K was not dephosphorylated | particularly strong expression | increased expression of LC3-II | significantly decreased |  |  |  |  |
| O=C(N[C@@H]1C(CO)O[C@H](O[C@H]2OC(CO)[C@@H](O)C(O)C2O)C(O)C1O)c1ccc2c(c1)C(=O)OC21c2ccc(O)cc2Oc2cc(O)ccc21 (some centres unmarked) [IMCTA-fluorescein] |  |  |  |  |  |  |  |  |  |  | ingested into Mycobacterium smegmatis bacterial cells and emitted fluorescence | no significant inhibition | inhibition was observed in the presence of 1% trehalose | two fluorescent lipids were detected |
